Measured values from patent publication US7371728B2, “Prostate-specific antigen probes for optical imaging” (Kaohsiung Medical University, priority 2005, dated 2008).
Entries after “also recorded” stand apart in the source; their conditions may differ. Square brackets hold non-standard residues; d marks the D form. Ends that are not written are not given here. * marks the point of attachment. FITC = O=C1OC2(c3ccc(O)cc3Oc3cc(O)ccc32)c2ccc(NC(=S)*)cc21; Hyp = O=C(O)[C@@H]1C[C@@H](O)CN1; Chg = N[C@H](C(=O)O)C1CCCCC1

Assays:
[1] = target: T1, prostate-specific antigen (Homo sapiens, UniProt P07288); assay: Quenching and non-quenching study: fluorescence intensity over time after reaction with prostate-specific antigen; format: biochemical; settings: 35 minutes
T1 sequence (P07288 25-261): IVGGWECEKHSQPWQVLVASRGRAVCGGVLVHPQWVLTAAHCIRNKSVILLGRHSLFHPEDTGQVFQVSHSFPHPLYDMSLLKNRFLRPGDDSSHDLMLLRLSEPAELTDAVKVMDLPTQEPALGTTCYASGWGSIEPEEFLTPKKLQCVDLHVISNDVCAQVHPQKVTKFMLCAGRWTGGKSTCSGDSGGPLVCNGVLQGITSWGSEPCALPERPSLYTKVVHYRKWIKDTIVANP
Text: FIG. 5. is a fluorescence absorption verse time diagram showing fluorescence intensity of a control peptide probe (×) for a prostate peptide substrate probe Cy-prostate-PGC (▪), control peptide probe (Δ) and a prostate peptide probe in the presence of a prostate-specific antigen (♦) according to the present invention;
At different time, a prostate peptide substrate and prostate control peptide are reacted with an enzyme of prostate-specific antigen to record its fluorescence spectrum and the results are shown in FIG. 5. […] When the reaction time for the reaction between prostate peptide substrate and the prostate-specific antigen reaches 35 minutes and the signal intensity becomes 5 times as that of the original fluorescence intensity.

[2] = target: T1, prostate-specific antigen; assay: HPLC study of peptide specificity for prostate-specific antigen; format: biochemical; settings: in the presence of prostate-specific antigen enzyme; fluorescence detection 480/525 nm
Text: The Study of Peptide Specificity for Prostate-Specific Antigen: • The high performance liquid chromatography is used for application in study of peptide separation, peptide purity analysis and specific enzyme-cutting specificity for a peptide substrate. […] The goal of the study of the present invention is to develop prostate peptide substrates and enzymes by in-vitro experiments.
The chromatographic diagrams of specificity analysis of the prostate peptide substrates and prostate-specific antigen are shown in FIGS. 3 and 4. The conditions of the HPLC are as follows: a reverse C18 chromatography column, mobile phase is methyl alcohol: 1% triethylamine=60:40(v/v), flow rate is 0.5 ml/min. […] There are two peaks in the spectrums if HPLC runs in the presence of the prostate-specific antigen with the retention times being 2.7 and 3.2 min as shown in FIG. 3.

G[Hyp]AS[Chg]QSLMK(FITC)C-NH2 [prostate peptide substrate]
fluorescence signal intensity relative to the original fluorescence intensity [1]: 5 times
cutting of the peptide by prostate-specific antigen (HPLC) [2]: can cut Gln-Ser residue; also recorded: one major cut
